ChEMBL document CHEMBL5252527, “An Update on Poly(ADP-ribose)polymerase-1 (PARP-1) Inhibitors: Opportunities and Challenges in Cancer Therapy” (J Med Chem, 2016)
Blank lines part the entries; values can stand above or below the molecule they belong to.

Assays:
[1] = molecular target: Poly [ADP-ribose] polymerase 1 (Mus musculus, UniProt P11103); experiment: Inhibition of mouse recombinant PARP-1 incubated for 60 mins
[2] = molecular target: Poly [ADP-ribose] polymerase 1 (Bos taurus, UniProt P18493); experiment: Inhibition of calf thymus PARP-1
Poly [ADP-ribose] polymerase 1 (Bos taurus, UniProt P18493), sequence (P18493 whole entry): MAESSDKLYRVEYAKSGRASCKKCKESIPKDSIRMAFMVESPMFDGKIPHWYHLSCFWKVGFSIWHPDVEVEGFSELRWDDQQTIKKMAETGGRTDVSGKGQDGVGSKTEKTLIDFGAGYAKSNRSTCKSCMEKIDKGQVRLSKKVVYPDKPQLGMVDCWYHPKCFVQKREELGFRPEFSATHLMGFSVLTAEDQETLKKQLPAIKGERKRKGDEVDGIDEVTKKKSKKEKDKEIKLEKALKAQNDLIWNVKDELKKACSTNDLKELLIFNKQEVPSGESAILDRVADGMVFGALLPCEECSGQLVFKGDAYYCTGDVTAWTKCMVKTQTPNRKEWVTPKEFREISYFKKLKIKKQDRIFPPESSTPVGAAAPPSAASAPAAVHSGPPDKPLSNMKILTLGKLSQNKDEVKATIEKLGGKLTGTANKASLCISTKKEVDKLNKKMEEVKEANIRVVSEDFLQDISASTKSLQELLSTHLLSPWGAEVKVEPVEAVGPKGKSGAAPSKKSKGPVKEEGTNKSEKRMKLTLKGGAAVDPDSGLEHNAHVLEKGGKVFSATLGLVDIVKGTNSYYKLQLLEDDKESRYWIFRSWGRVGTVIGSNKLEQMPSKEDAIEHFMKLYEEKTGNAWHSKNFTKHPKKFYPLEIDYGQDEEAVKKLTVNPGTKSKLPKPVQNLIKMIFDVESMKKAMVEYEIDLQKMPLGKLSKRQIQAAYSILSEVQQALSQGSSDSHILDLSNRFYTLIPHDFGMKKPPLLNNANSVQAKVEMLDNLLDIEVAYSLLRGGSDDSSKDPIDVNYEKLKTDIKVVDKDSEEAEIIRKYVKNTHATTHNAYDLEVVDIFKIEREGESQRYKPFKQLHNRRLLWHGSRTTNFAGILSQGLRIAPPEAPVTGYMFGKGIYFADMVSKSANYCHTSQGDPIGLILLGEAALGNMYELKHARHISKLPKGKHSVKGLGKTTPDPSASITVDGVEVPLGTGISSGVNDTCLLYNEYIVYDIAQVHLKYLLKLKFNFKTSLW

[3] = Inhibition of calf thymus […]; design: species or system Bos taurus
[4] = molecular target: T1, Poly [ADP-ribose] polymerase 2 (Homo sapiens, UniProt Q9UGN5); experiment: Inhibition of human PARP-2 incubated for 18 to 20 hrs by scintillation proximity assay
T1 sequence (Q9UGN5 whole entry): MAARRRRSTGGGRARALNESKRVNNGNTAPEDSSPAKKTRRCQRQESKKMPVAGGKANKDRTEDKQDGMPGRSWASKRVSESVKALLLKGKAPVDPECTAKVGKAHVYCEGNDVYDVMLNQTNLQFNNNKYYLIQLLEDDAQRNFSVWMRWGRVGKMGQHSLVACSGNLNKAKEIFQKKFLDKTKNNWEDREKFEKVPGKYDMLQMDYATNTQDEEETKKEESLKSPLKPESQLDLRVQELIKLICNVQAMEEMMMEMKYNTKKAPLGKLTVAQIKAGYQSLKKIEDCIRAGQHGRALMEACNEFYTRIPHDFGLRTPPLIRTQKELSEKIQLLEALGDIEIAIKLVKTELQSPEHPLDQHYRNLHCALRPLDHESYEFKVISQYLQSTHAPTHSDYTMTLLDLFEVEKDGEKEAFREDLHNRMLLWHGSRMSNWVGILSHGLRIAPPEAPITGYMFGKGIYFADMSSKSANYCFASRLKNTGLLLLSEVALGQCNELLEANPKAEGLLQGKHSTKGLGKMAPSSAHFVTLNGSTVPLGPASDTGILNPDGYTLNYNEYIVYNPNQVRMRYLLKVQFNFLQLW

Homo sapiens = organism: Homo sapiens; experiment: Selectivity index, ratio of IC50 of human PARP-1 to IC50 of human PARP-2
[5] = molecular target: T2, Poly [ADP-ribose] polymerase 1 (Homo sapiens, UniProt P09874); experiment: Inhibition of human PARP-1 using histone as substrate incubated for 16 hrs by ELISA assay
T2 sequence (P09874 whole entry): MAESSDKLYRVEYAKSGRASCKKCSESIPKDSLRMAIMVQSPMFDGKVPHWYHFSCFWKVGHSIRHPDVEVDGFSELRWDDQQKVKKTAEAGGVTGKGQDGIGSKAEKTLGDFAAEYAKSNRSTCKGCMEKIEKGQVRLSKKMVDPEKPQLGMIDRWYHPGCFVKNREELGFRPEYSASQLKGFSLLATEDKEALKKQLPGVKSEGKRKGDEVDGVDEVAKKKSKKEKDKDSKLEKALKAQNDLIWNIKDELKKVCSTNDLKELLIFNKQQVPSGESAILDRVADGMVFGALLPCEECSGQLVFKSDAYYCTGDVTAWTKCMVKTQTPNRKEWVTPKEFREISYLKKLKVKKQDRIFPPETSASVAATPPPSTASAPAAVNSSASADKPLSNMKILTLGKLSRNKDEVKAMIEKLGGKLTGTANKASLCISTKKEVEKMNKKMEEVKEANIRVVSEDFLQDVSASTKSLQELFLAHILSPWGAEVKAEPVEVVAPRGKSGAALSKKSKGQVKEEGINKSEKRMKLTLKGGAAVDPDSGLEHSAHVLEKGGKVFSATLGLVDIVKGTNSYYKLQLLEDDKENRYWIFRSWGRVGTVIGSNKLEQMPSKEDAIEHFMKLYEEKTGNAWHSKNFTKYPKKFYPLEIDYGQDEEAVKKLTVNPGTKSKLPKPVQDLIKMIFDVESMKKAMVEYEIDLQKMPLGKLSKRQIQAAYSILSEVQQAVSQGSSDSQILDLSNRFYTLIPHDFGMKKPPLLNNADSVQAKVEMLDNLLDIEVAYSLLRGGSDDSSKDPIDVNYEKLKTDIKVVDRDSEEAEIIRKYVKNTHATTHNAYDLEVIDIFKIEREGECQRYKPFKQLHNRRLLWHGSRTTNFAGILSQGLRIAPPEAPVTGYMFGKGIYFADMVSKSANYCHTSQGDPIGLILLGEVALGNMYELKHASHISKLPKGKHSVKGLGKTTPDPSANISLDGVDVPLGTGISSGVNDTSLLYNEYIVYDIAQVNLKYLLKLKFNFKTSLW

[6] = molecular target: T2, Poly [ADP-ribose] polymerase 1; experiment: Inhibition of PARP-1 (unknown origin)
[7] = molecular target: T1, Poly [ADP-ribose] polymerase 2; experiment: Inhibition of PARP-2 (unknown origin)
U-251 = experiment: Inhibition of human PARP expressed in U-251 cells at 3 uM relative to control; assay type: cell-based
[8] = molecular target: T2, Poly [ADP-ribose] polymerase 1; experiment: Inhibition of PARP-1 (unknown origin) assessed as inhibition constant
[9] = molecular target: T2, Poly [ADP-ribose] polymerase 1; experiment: Inhibition of human PARP-1
[10] = Half life in rat; assay type: ADME; details: in vivo
[11] = Oral bioavailability in rat; assay type: ADME, organism-based; details: in vivo

Poly [ADP-ribose] polymerase 1 (Mus musculus, UniProt P11103), sequence (P11103 whole entry): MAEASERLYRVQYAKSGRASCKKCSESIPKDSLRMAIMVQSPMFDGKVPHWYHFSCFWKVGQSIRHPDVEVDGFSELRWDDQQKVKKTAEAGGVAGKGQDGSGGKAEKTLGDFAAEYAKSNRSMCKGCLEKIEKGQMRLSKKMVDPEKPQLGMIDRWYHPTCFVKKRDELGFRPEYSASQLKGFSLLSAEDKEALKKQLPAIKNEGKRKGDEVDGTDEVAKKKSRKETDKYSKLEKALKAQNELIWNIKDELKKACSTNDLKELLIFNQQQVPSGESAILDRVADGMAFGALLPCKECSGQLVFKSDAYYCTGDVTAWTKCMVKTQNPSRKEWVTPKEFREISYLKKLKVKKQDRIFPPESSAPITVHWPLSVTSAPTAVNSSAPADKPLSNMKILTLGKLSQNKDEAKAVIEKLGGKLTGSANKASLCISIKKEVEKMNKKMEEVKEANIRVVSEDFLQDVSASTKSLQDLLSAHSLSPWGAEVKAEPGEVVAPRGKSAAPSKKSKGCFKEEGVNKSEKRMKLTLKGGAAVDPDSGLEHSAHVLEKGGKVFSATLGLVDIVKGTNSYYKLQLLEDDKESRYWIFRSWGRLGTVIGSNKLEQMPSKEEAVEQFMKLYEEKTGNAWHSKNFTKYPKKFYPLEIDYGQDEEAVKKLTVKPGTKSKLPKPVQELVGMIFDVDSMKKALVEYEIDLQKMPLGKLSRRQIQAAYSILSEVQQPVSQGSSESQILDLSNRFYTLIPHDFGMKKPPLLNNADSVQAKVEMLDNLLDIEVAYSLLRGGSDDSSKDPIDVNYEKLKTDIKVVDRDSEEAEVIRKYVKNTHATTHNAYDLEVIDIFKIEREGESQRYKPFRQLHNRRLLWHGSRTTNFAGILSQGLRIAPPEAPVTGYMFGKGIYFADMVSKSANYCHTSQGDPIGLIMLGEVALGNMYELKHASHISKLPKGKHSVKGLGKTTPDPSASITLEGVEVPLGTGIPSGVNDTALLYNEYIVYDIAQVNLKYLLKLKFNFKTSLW

IC50 [1]: 1.5 µM
SMILES: O=C(Nc1cccc2c(=O)[nH]ccc12)c1ccccc1

SMILES: Cc1cccc2c(=O)[nH]c(CCCN3CC=C(c4ccc(F)cc4)CC3)nc12
IC50 [2]: 0.016 µM | IC50 [3]: 0.167 µM

IC50 [4]: 4 µM
SMILES: Cn1cccc1/C=C1\C(=O)NC(=O)c2ccccc21

Ratio IC50 (Homo sapiens): 8 | IC50 [5]: 0.00129 µM
SMILES: CC(C)(C)[Si](C)(C)OCCCN1CCN(C(=O)c2cc(Cn3c(=O)[nH]c(=O)c4ccccc43)ccc2F)CC1=O

IC50 [6]: 0.02 µM | IC50 [7]: 0.006 µM
SMILES: COc1cccc2[nH]c3c4c(c5c(c3c12)C(=O)N(CN1CCN(C)CC1)C5=O)CCC4 [CEP-9722]

Ki [8]: 0.05 µM
SMILES: O=c1[nH]nc2c3c(cccc13)Oc1ccc(CN3CCC(O)CC3)cc1-2 [E-7016]
inhibition (U-251): 84%

IC50 [9]: 100 µM
SMILES: NC(=O)c1ccc(I)c([N+](=O)[O-])c1 [INIPARIB]

IC50 [7]: 0.00011 µM
SMILES: C[C@]12CCCN1CC1=NNC(=O)c3cc(F)cc4[nH]c2c1c34 [PAMIPARIB]

t1/2 [10]: 40 h | bioavailability [11]: > 40%
SMILES: Cn1ncnc1[C@H]1c2n[nH]c(=O)c3cc(F)cc(c23)N[C@@H]1c1ccc(F)cc1 [TALAZOPARIB]
